Data published in patent US12576155B2, “Senolytic and antiinflammatory prodrugs and methods of use thereof” (priority 2019, dated 2026).

Assays:
Format in all cases: cell-based
[1] = system: primary human chondrocytes isolated from Osteoarthritis patient; assay: Viability / apoptosis of primary human OA chondrocytes (CCK-8, Annexin V flow cytometry)
Description: Fibroblasts were digested into single cell suspensions by incubation with 0.25% trypsin-EDTA (Invitrogen) at 37° C. for 3-5 min or with accutase at 37° C. for 10 min. Cells were then stained with FITC annexin V and propidium iodide (PI) according to the manufacturer's protocol (FITC Annexin V Apoptosis Detection Kit I, BD Pharmingen™). For chondrocytes Annexin V/7-AAD analysis, the trypsinized live chondrocytes and floating cells were collected, centrifuged and washed with PBS. Cells were stained with the Annexin V Apoptosis Detection Kit (Biolegend, 640934) according to the manufacturer's instruction. Before the flow cytometric analysis, the precision count beads (Biolegend, 424902) were added to count the absolute live cell numbers. Flow cytometry was performed within one hour on an Aria III (BD Biosciences) or FACSVerse (BD Biosciences). Data were analyzed using FlowJo software (FlowJo LLC).
Cell Counting Kit-8 (CCK-8) analysis was also used to assess cell viability. Senescent and non-senescent cells or chondrocytes were inoculated into 96-well plates and cultured overnight. Then cells were treated with vehicle (0.05% DMSO) or different concentrations of SSK2. After 48 h or 72 h, CCK-8 solution (C0041, Beyotime) was added to each well as 1:10 ratio and inoculated for another 2 h. The absorbance was measured at 450 nm wavelength.

[2] = system: β-galactosidase positive senescent human embryonic fibroblasts (HEFs); assay: CCK-8 cell viability, SSK2 in etoposide-induced senescent HEFs; details: increasing doses, 72 h
Description: (§1) For etoposide-induced senescence, MEFs were treated with 2 μM etoposide for 20 hours, and HEFs were treated with 10 μM etoposide for 12-18 hours. Three days after treatment, cells were sub-cultured at a 1:3 ratio for 72 hours in a fresh medium before further analysis.
Cultured cells were washed once with PBS and fixed in β-galactosidase staining fix solution for 15 min at room temperature. Cells were then washed three times with PBS and incubated with β-galactosidase staining solution (Beyotime Biotechnology) for 16-20 hours at 37° C. For 12-well plates, 1 ml of β-galactosidase staining solution was added to each well. The plate was sealed with Parafilm to prevent evaporation of the staining medium. After the overnight incubation, cells were washed with PBS and observed under a bright field microscope. For β-galactosidase staining of frozen sections, the frozen sections were dried at 37° C. for 20-30 min and then fixed in β-galactosidase staining fix solution for 15 min at room temperature. The frozen sections were washed three times with PBS and incubated with β-galactosidase staining solution overnight at 37° C. […]
Cell Counting Kit-8 (CCK-8) analysis was also used to assess cell viability. […] The absorbance was measured at 450 nm wavelength.

senescent cells = assay: Cell viability, SSK1 combined with p38 inhibitors; details: SSK1 0.5 μM plus inhibitor
Description: To test the viability of senescent and non-senescent cells treated with SSK1, cells were stained with a mixture of Hoechst 33342 and propidium iodide (PI) (CA1120, Solarbio) to distinguish living and dead cells. After treatment with the small molecules, the cell culture medium was removed, and the cells were washed once with PBS. Then, the cells were stained according to the manufacturer's protocol, where the final concentrations of Hoechst 33342 and PI were 5 μg/ml and 2 μg/ml in PBS buffer. The plate was incubated at 4° C. for 30 min and observed on a fluorescence microscope or automatic cell imaging system. Viable cells were quantified using a MD Image Xpress Micro XL (Molecular Devices).

[3] = system: primary mouse fibroblasts and their replication-induced senescent counterparts; assay: Cell viability testing, senescent vs non-senescent primary mouse fibroblasts
Description: Mouse embryonic fibroblasts (MEFs) were isolated from E13.5 embryos as described previously (Zhao et al., Cell Stem Cell 23, 31-45 e37([…])). Newborn mouse skin fibroblasts (NBFs) were isolated from the skin of day 1-3 newborn mice. Adult mouse lung fibroblasts were isolated from 2-month-old and 23-month-old mice. Briefly, mouse embryonic tissues, skin and lung were obtained from described donor mice. Then, these tissues were minced with forceps and incubated in 2 mg/ml collagenase IV (Gibco) for 2-4 hours at 37° C. After enzyme treatment, cells were collected by centrifugation and resuspended in high-glucose DMEM (Gibco) supplemented with 10% fetal bovine serum (FBS) and 1% penicillin-streptomycin (Gibco). The three types of mouse primary cells were all cultured in a humidified incubator at 37° C. and 5% CO2.
To avoid replication-induced senescent cells, low-passage proliferative NBFs (<3 passages), MEFs (<3 passages), mouse lung fibroblasts (<3 passages), HEFs (<10 passages), and HUVECs (<6 passages) were used as normal controls. To induce cell quiescence, MEFs were cultured in DMEM without FBS for 2 days.
(§2) For replication-induced senescence, cells were passaged until they lost the ability to proliferate and became senescent. NBFs were used as senescent cells after approximately 8-9 passages or 12 population doublings. HEFs were used after approximately 35 passages or 50 population doublings. HUVECs were senescent after approximately 18 passages or 24 population doublings.
To test the viability of senescent and non-senescent cells treated with SSK1, cells were stained with a mixture of Hoechst 33342 and propidium iodide (PI) (CA1120, Solarbio) to distinguish living and dead cells. After treatment with the small molecules, the cell culture medium was removed, and the cells were washed once with PBS. […] The plate was incubated at 4° C. for 30 min and observed on a fluorescence microscope or automatic cell imaging system. Viable cells were quantified using a MD Image Xpress Micro XL (Molecular Devices).

[4] = system: human senescent fibroblasts induced by different stimuli; assay: Cell viability, senescent and non-senescent human embryonic fibroblasts (HEFs); details: human senescent cells; panel of FDA-approved drugs
Description: Human embryonic skin fibroblasts (HEFs) were obtained as previously described. Briefly, human embryonic skin tissues, obtained from aborted tissue with informed patient consent, were minced with forceps and incubated in 1 mg/ml collagenase IV for 1-2 hours at 37° C. After enzyme treatment, cells were collected by centrifugation and resuspended in HEF medium (Dulbecco's modified Eagle's medium (DMEM, Gibco) containing 10% fetal bovine serum (FBS, Ausbian), 1% GlutaMAX (Gibco), 1% Non-Essential Amino Acids (NEAA, Gibco) and 1% penicillin/streptomycin (Gibco). Cells were plated on 10 cm tissue culture dishes and grown in 10% FBS DMEM.
as §2
(§3) For ionizing radiation-induced senescence, MEFs and HEFs were exposed to 10 Gy of ionizing irradiation in an RS 2000 X-ray Biological Irradiator (Rad Source Technologies, Inc.) at a dose rate of 1.205 Gy/min. The day after irradiation, MEFs or HEFs were passaged at a 1:3 dilution and cultured for another three days. Then these cells were plated to carry out further experiments.
as §1
(§4) To test the viability of senescent and non-senescent cells treated with SSK1, cells were stained with a mixture of Hoechst 33342 and propidium iodide (PI) (CA1120, Solarbio) to distinguish living and dead cells. […] The plate was incubated at 4° C. for 30 min and observed on a fluorescence microscope or automatic cell imaging system. Viable cells were quantified using a MD Image Xpress Micro XL (Molecular Devices).

[5] = system: senescent human fibroblasts; assay: Other reported senolytic compounds in cultured senescent human fibroblasts; details: hydroperoxide-, replication-, irradiation- and etoposide-induced senescent cells
Text: as §2, §3
For etoposide-induced senescence, MEFs were treated with 2 μM etoposide for 20 hours, and HEFs were treated with 10 μM etoposide for 12-18 hours. […]
as §4

O=C(Nc1ccn([C@@H]2O[C@H](CO)C(O)C2(F)F)c(=O)n1)OCc1ccc(O[C@@H]2OC(CO)[C@H](O)C(O)C2O)c([N+](=O)[O-])c1 (stereo partly shown) [SSK2]
Elimination of OA chondrocytes ([1]; FIG. 16: 10 μM, 72 h, FIG. 17: increasing concentrations): efficiently eliminate primary human chondrocytes isolated from Osteoarthritis patient
Viable human OA chondrocytes with increasing concentrations ([1]; SSK2 treatment for 48 h / 72 h as printed): Dose-dependent elimination of senescent cells
Selective killing of senescent HEFs (viable cells) [2]: efficiently and selectively kill β-galactosidase positive senescent human embryonic fibroblasts (HEFs) in a dose-dependent manner

Oc1ccc(-c2nc(-c3ccncc3)c(-c3ccc(F)cc3)[nH]2)cc1 [SB202190]
Viable cells, SSK1 combined with p38 MAPK inhibitor (senescent cells): impaired SSK1's ability to specifically kill senescent cells

Cc1ccc(-n2nc(C(C)(C)C)cc2NC(=O)Nc2ccc(OCCN3CCOCC3)c3ccccc23)cc1 [Birb796]
Viable cells, SSK1 combined with p38 MAPK inhibitor (senescent cells): impaired SSK1's ability to specifically kill senescent cells

Nc1ccn([C@@H]2O[C@H](CO)[C@@H](O)C2(F)F)c(=O)n1 [gemcitabine]
Selective killing of senescent cells (viable cells) ([3]; increasing doses, senescent vs non-senescent cells): killed both cell types
Cytotoxicity for senescent cells ([3]; mouse senescent cells, panel of FDA-approved drugs): killed both mouse and human senescent cells effectively and potently
Cytotoxicity for senescent cells [4]: killed both mouse and human senescent cells effectively and potently

CC1(C)CCC(c2ccc(Cl)cc2)=C(CN2CCN(c3ccc(C(=O)NS(=O)(=O)c4ccc(N[C@H](CCN5CCOCC5)CSc5ccccc5)c(S(=O)(=O)C(F)(F)F)c4)cc3)CC2)C1 [ABT263]
Selective killing of senescent human fibroblasts compared with proliferative cells [5]: selectively killed hydroperoxide-induced senescent human fibroblasts but not replication-induced cells

C[S+]([O-])c1ccc(-c2nc(-c3ccncc3)c(-c3ccc(F)cc3)[nH]2)cc1 (stereo not shown) [SB203580]
Viable cells, SSK1 combined with p38 MAPK inhibitor (senescent cells): impaired SSK1's ability to specifically kill senescent cells
